Molecular target: Human TASK-1 channels (Homo sapiens (Human), UniProt O14649)
Assay: Activity on the TASK-1 channel in Xenopus oocytes (two-microelectrode voltage clamp)
Assay type: cell-based
Conditions: 5 μM; percentage inhibition of TASK-1 control current, Xenopus oocytes
Protocol: Determination of the activity on the TASK-1 channel in Xenopus oocytes:
Human TASK-1 channels were expressed in Xenopus oocytes. For this purpose, oocytes were isolated from Xenopus laevis and defolliculated. Subsequently, TASK-1-encoding RNA synthesized in vitro was injected into oocytes. After two days of TASK-1 protein expression, TASK-1 currents were measured by two-microelectrode voltage clamp. Data were acquired and analyzed using a TEC-10cx amplifier (NPI Electronic, Tamm, Germany) connected to an ITC-16 interface (Instrutech Corp., Long Island, USA) and Pulse software (HEKA Elektronik, Lambrecht, Germany). Oocytes were clamped to −90 mV and TASK-1 mediated currents were measured during 500 ms voltage pulses to 40 mV. Oocytes were continuously superfused with ND96 buffer containing: NaCl 96 mM, KCl2 mM, CaCl2 1.8 mM, MgCl2 1 mM, HEPES 5 mM (pH adjusted to 7.4 with NaOH). All experiments were performed at room temperature.
Test substances were consecutively added to the bath solution at rising concentrations. Compound effects were calculated as the percentage inhibition of
TASK-1 control current before compound application. IC50 values were obtained by fitting the data to the general dose-response equation.

Sequence of Human TASK-1 channels (O14649 whole entry): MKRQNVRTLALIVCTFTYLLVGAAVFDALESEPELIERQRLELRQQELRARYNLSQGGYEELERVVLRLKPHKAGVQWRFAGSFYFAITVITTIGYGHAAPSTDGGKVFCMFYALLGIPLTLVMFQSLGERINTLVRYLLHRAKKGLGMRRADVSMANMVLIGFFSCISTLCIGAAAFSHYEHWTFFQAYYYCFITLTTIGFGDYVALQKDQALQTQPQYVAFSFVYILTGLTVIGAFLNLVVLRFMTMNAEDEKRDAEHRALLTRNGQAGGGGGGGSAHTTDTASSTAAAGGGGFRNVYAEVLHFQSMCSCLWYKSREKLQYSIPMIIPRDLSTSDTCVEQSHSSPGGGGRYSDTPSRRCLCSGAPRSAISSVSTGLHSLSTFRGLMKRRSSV

inhibition at 5 µM	Compound
61%	CC(=O)N1CCc2c(c(-c3ccc(C(F)(F)F)cc3)nn2[C@@H]2c3cc(F)cc(F)c3C[C@H]2O)C1 [Example 11ae, 1-[1-((1R,2R)-4,6-Difluoro-2-hydroxy-indan-1-yl)-3-(4-trifluoromethyl-phenyl)-1,4,6,7-tetrahydro-pyrazolo[4,3-c]pyridin-5-yl]-ethanone]

Same assay, conditions: human TASK-1 expressed in Xenopus oocytes, currents during 500 ms pulses to 40 mV, room temperature

Compound	IC50
CC(=O)N1CCc2c(c(-c3ccc(F)cc3)nn2[C@@H]2c3c(Cl)cc(Cl)cc3C[C@H]2O)C1 (racemic) [Example 11ac, racemic 1-[1-((1R,2R)-5,7-Dichloro-2-hydroxy-indan-1-yl)-3-(4-fluoro-phenyl)-1,4,6,7-tetrahydro-pyrazolo[4,3-c]pyridin-5-yl]-ethanone]	3880 nM
CC(=O)N1CCc2c(c(-c3ccc(F)c(C(F)(F)F)c3)nn2[C@H]2c3cc(F)cc(F)c3C[C@]2(C)O)C1 (racemic) [Example 11i, racemic 1-[1-((1S,2S)-4,6-Difluoro-2-hydroxy-2-methyl-indan-1-yl)-3-(4-fluoro-3-trifluoromethyl-phenyl)-1,4,6,7-tetrahydro-pyrazolo[4,3-c]pyridin-5-yl]-ethanone]	375 nM
CC(=O)N1CCc2c(c(-c3ccc(F)cc3)nn2[C@@H]2c3cc(Cl)c(Cl)cc3C[C@H]2O)C1 (racemic) [Example 11u, racemic 1-[1-((1R,2R)-5,6-Dichloro-2-hydroxy-indan-1-yl)-3-(4-fluoro-phenyl)-1,4,6,7-tetrahydro-pyrazolo[4,3-c]pyridin-5-yl]-ethanone]	1010 nM
CC(=O)N1CCc2c(c(-c3cccc(C#N)c3)nn2[C@@H]2c3cc(F)cc(F)c3C[C@@]2(C)O)C1 (racemic) [Example 11w, Racemic 3-[5-Acetyl-1-((1R,2R)-4,6-difluoro-2-hydroxy-2-methyl-indan-1-yl)-4,5,6,7-tetrahydro-1H-pyrazolo[4,3-c]pyridin-3-yl]-benzonitrile]	1260 nM
COc1ccc(-c2nn([C@@H]3c4cc(F)cc(F)c4C[C@H]3O)c3c2CN(C(C)=O)CC3)cc1 [Example 11ad, 1-[1-((1R,2R)-4,6-Difluoro-2-hydroxy-indan-1-yl)-3-(4-methoxy-phenyl)-1,4,6,7-tetrahydro-pyrazolo[4,3-c]pyridin-5-yl]-ethanone]	6890 nM
COc1ccc(F)c(-c2nn([C@@H]3c4cc(F)cc(F)c4C[C@H]3O)c3c2CN(C(C)=O)CC3)c1 [Example 11c, 1-[1-((1R,2R)-4,6-Difluoro-2-hydroxy-indan-1-yl)-3-(2-fluoro-5-methoxy-phenyl)-1,4,6,7-tetrahydro-pyrazolo[4,3-c]pyridin-5-yl]-ethanone]	204 nM
CC(=O)N1CCc2c(c(-c3cccc(C#N)c3)nn2[C@@H]2c3cc(F)cc(Br)c3C[C@H]2O)C1 [Example 11d, 3-[5-Acetyl-1-((1R,2R)-4-bromo-6-fluoro-2-hydroxy-indan-1-yl)-4,5,6,7-tetrahydro-1H-pyrazolo[4,3-c]pyridin-3-yl]-benzonitrile]	226 nM
CC(=O)N1CCc2c(c(-c3cccc(C(F)(F)F)n3)nn2[C@@H]2c3cc(F)cc(F)c3C[C@H]2O)C1 [Example 11e, 1-[1-((1R,2R)-4,6-Difluoro-2-hydroxy-indan-1-yl)-3-(6-trifluoromethyl-pyridin-2-yl)-1,4,6,7-tetrahydro-pyrazolo[4,3-c]pyridin-5-yl]-ethanone]	239 nM
CC(=O)N1CCc2c(c(-c3ccc(F)c(C(F)(F)F)c3)nn2[C@@H]2c3cc(F)cc(F)c3C[C@H]2O)C1 [Example 11f, 1-[1-((1R,2R)-4,6-Difluoro-2-hydroxy-indan-1-yl)-3-(4-fluoro-3-trifluoromethyl-phenyl)-1,4,6,7-tetrahydro-pyrazolo[4,3-c]pyridin-5-yl]-ethanone]	270 nM
CC(=O)N1CCc2c(c(-c3cccc(C#N)c3)nn2[C@@H]2c3cc(Cl)cc(Cl)c3C[C@H]2O)C1 [Example 11g, 3-[5-Acetyl-1-((1R,2R)-4,6-dichloro-2-hydroxy-indan-1-yl)-4,5,6,7-tetrahydro-1H-pyrazolo[4,3-c]pyridin-3-yl]-benzonitrile]	350 nM
CC(=O)N1CCc2c(c(-c3cccc(C(F)(F)F)n3)nn2[C@@H]2c3cc(Cl)cc(Cl)c3C[C@H]2O)C1 [Example 11m, 1-[1-((1R,2R)-4,6-Dichloro-2-hydroxy-indan-1-yl)-3-(6-trifluoromethyl-pyridin-2-yl)-1,4,6,7-tetrahydro-pyrazolo[4,3-c]pyridin-5-yl]-ethanone]	518 nM
CC(=O)N1CCc2c(c(-c3cccc(C#N)c3)nn2[C@@H]2c3cc(Cl)ccc3C[C@H]2O)C1 [Example 11p, 3-[5-Acetyl-1-((1R,2R)-6-chloro-2-hydroxy-indan-1-yl)-4,5,6,7-tetrahydro-1H-pyrazolo[4,3-c]pyridin-3-yl]-benzonitrile]	685 nM
CC(=O)N1CCc2c(c(-c3ccc(F)cc3)nn2[C@@H]2c3cc(Cl)ccc3C[C@H]2O)C1 [Example 11s, 1-[1-((1R,2R)-6-Chloro-2-hydroxy-indan-1-yl)-3-(4-fluoro-phenyl)-1,4,6,7-tetrahydro-pyrazolo[4,3-c]pyridin-5-yl]-ethanone]	804 nM

The next lines start with the values.

IC50	Compound
171 nM	CC(=O)N1CCc2c(c(-c3cccc(OC(F)(F)F)c3)nn2[C@@H]2c3cc(F)cc(F)c3C[C@H]2O)C1 [Example 11a, 1-[1-((1R,2R)-4,6-Difluoro-2-hydroxy-indan-1-yl)-3-(3-trifluoromethoxy-phenyl)-1,4,6,7-tetrahydro-pyrazolo[4,3-c]pyridin-5-yl]-ethanone]
2220 nM	CC(=O)N1CCc2c(c(-c3cccc(F)c3)nn2[C@@H]2c3cc(F)cc(F)c3C[C@H]2O)C1 [Example 11aa, 1-[1-((1R,2R)-4,6-Difluoro-2-hydroxy-indan-1-yl)-3-(3-fluoro-phenyl)-1,4,6,7-tetrahydro-pyrazolo[4,3-c]pyridin-5-yl]-ethanone]
2970 nM	CC(=O)N1CCc2c(c(-c3ccc(Cl)cc3)nn2[C@@H]2c3cc(F)cc(F)c3C[C@H]2O)C1 [Example 11ab, 1-[3-(4-Chloro-phenyl)-1-((1R,2R)-4,6-difluoro-2-hydroxy-indan-1-yl)-1,4,6,7-tetrahydro-pyrazolo[4,3-c]pyridin-5-yl]-ethanone]
190 nM	CC(=O)N1CCc2c(c(-c3cccc(Cl)c3)nn2[C@H]2c3cc(F)cc(F)c3C[C@@H]2O)C1 [Example 11b, 1-[3-(3-Chloro-phenyl)-1-((1S,2S)-4,6-difluoro-2-hydroxy-indan-1-yl)-1,4,6,7-tetrahydro-pyrazolo[4,3-c]pyridin-5-yl]-ethanone]
370 nM	CC(=O)N1CCc2c(c(-c3cccc(C(F)(F)F)c3)nn2[C@H]2c3cc(F)cc(F)c3C[C@@H]2O)C1 [Example 11h, 1-[1-((1S,2S)-4,6-Difluoro-2-hydroxy-indan-1-yl)-3-(3-trifluoromethyl-phenyl)-1,4,6,7-tetrahydro-pyrazolo[4,3-c]pyridin-5-yl]-ethanone]
442 nM	COc1cccc(-c2nn([C@@H]3c4cc(F)cc(F)c4C[C@H]3O)c3c2CN(C(C)=O)CC3)c1 [Example 11k, 1-[1-((1R,2R)-4,6-Difluoro-2-hydroxy-indan-1-yl)-3-(3-methoxy-phenyl)-1,4,6,7-tetrahydro-pyrazolo[4,3-c]pyridin-5-yl]-ethanone]
495 nM	CC(=O)N1CCc2c(c(-c3ccc(F)cc3)nn2[C@@H]2c3cc(F)cc(F)c3C[C@H]2O)C1 [Example 11l, 1-[1-((1R,2R)-4,6-Difluoro-2-hydroxy-indan-1-yl)-3-(4-fluoro-phenyl)-1,4,6,7-tetrahydro-pyrazolo[4,3-c]pyridin-5-yl]-ethanone]
568 nM	CC(=O)N1CCc2c(c(-c3ccc(F)cc3)nn2[C@@H]2c3cc(Cl)cc(F)c3C[C@H]2O)C1 [Example 11n, 1-[1-((1R,2R)-6-Chloro-4-fluoro-2-hydroxy-indan-1-yl)-3-(4-fluoro-phenyl)-1,4,6,7-tetrahydro-pyrazolo[4,3-c]pyridin-5-yl]-ethanone]
675 nM	CC(=O)N1CCc2c(c(-c3cccc(C#N)c3)nn2[C@H]2c3cc(F)cc(F)c3C[C@@H]2O)C1 [Example 11o, 3-[5-Acetyl-1-((1S,2S)-4,6-difluoro-2-hydroxy-indan-1-yl)-4,5,6,7-tetrahydro-1H-pyrazolo[4,3-c]pyridin-3-yl]-benzonitrile]
773 nM	CC(=O)N1CCc2c(c(-c3cccc(C(F)(F)F)c3)nn2[C@@H]2c3cc(F)cc(F)c3C[C@H]2O)C1 [Example 11q, 1-[1-((1R,2R)-4,6-Difluoro-2-hydroxy-indan-1-yl)-3-(3-trifluoromethyl-phenyl)-1,4,6,7-tetrahydro-pyrazolo[4,3-c]pyridin-5-yl]-ethanone]
789 nM	CC(=O)N1CCc2c(c(-c3cccc(OC(F)(F)F)c3)nn2[C@H]2c3cc(F)cc(F)c3C[C@@H]2O)C1 [Example 11r, 1-[1-((1S,2S)-4,6-Difluoro-2-hydroxy-indan-1-yl)-3-(3-trifluoromethoxy-phenyl)-1,4,6,7-tetrahydro-pyrazolo[4,3-c]pyridin-5-yl]-ethanone]
881 nM	CC(=O)N1CCc2c(c(-c3cccc(C#N)c3)nn2[C@@H]2c3cc(F)cc(F)c3C[C@H]2O)C1 [Example 11t, 3-[5-Acetyl-1-((1R,2R)-4,6-difluoro-2-hydroxy-indan-1-yl)-4,5,6,7-tetrahydro-1H-pyrazolo[4,3-c]pyridin-3-yl]-benzonitrile]
